Several values for one entry are separate records, joined by “and”; a condition that tells them apart may be missing. Equal values may be shown once.

The first assay addresses T1, h-NAAA (Homo sapiens, UniProt Q02083).
T1 construct: made in house; host or cells: HEK-293 cells stably overexpressing human NAAA; enzyme-enriched (lysosomal) lysate
T1 sequence (Q02083 29-125 limits assumed): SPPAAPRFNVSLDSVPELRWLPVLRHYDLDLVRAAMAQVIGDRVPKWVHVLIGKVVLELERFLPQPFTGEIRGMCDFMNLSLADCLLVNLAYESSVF
T1 sequence (Q02083 126-359 limits assumed): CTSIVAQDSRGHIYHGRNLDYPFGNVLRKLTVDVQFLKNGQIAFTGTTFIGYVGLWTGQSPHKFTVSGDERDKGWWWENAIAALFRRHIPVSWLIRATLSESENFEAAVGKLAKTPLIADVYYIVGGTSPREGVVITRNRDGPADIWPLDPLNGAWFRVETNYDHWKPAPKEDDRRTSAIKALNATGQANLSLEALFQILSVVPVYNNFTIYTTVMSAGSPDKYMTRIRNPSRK
Nature of the assay: Fluorogenic human-NAAA assay (h-NAAA, fluo.). As to conditions: h-NAAA (fluo.). It counts as biochemical. The procedure:
Human recombinant proteins were obtained from HEK-293 stable overexpressing human NAAA, AC, and FAAH-1 cell lines, respectively. Cells were grown in Dulbecco’s modified Eagle medium (DMEM) containing 10% FBS, 1% glutamine, 1 mM sodium pyruvate, and 500 μg/mL geneticin (G418). To obtain a high-density cell proliferation, h-NAAA-HEK-293 cells were grown in BelloCell-500 bottle, a compact bioreactor. On the contrary, h-AC and h-FAAH-1-HEK-293 cells were grown in 150 mm dishes and scraped off with cold PBS 1× pH 7.4 at 80% confluence. Cell pellets were collected and stored at −80 °C until protein preparation.
HEK-293 cells stably transfected with the human NAAA or human AC coding sequences were used as the enzyme source. Cells were suspended in 20 mM Tris-HCl (pH 7.4) with 0.32 M sucrose, sonicated, and centrifuged at 800g for 30 min at 4 °C. Supernatants were then centrifuged at 12,000g for 30 min at 4 °C. Pellets were resuspended in PBS buffer (pH 7.4) and subjected to three freeze-thaw cycles at −80 °C. The suspension was finally centrifuged at 105,000g for 1 h at 4 °C, supernatants were collected, protein concentration was measured, and samples were aliquoted and stored at −80 °C until use.
The assay was run in 96-well microplates (Black OptiPlate-96 F; PerkinElmer, Massachusetts, USA), in a total reaction volume of 200 μL. h-NAAA protein preparation (4 μg) was preincubated for 30 min with various concentrations of test compounds or vehicle control (DMSO 5%) in 100 mM citrate/phosphate buffer (pH 4.5) containing 3.0 mM DTT, 0.1% NP40, 0.05% BSA, and 150 mM NaCl. The background (no activity) samples were prepared using assay buffer without h-NAAA and DMSO (5%). N-(4-methyl-2-oxo-chromen-7-yl)-hexadecanamide (PAMCA)[60] was used as a substrate (2 μM) and the reaction was carried out for 50 min at 37 °C. Fluorescence was measured with EnVision 2014 Multilabel Reader (PerkinElmer, Massachusetts, USA) using an excitation wavelength of 355 nm and an emission of 460 nm. IC50 values were calculated by non-linear regression analysis of log[concentration]/response curves generated with mean replicate values using a four-parameter Hill equation curve fitting with GraphPad Prism 5 (GraphPad Software Inc., CA, USA).
Regarding `Cc1n[nH]c(C)c1S(=O)(=O)N1[C@@H]2CC[C@H]1C[C@H](Oc1cnccn1)C2` [Compound 21, (1R,3s,5S)-8-((3,5-Dimethyl-1H-pyrazol-4-yl)sulfonyl)-3-(pyrazin-2-yloxy)-8-azabicyclo[3.2.1]octane], the “h-NAAA inhibitory activity, in words” value is reported as “devoid of any activity”. The same measure, in the same setting: for `Cc1n[nH]c(C)c1S(=O)(=O)N1CCC(Cc2cnccn2)CC1` [Compound 23, 2-((1-((3,5-Dimethyl-1H-pyrazol-4-yl)sulfonyl)piperidin-4-yl)methyl)pyrazine] the value was “abolished the inhibitory activity”; for `Cc1n[nH]c(C)c1S(=O)(=O)N1CCC(Nc2cnccn2)CC1` [Compound 22, N-(1-((3,5-Dimethyl-1H-pyrazol-4-yl)sulfonyl)piperidin-4-yl)pyrazin-2-amine], “abolished the inhibitory activity”. Same read-out and setting: for `O=S(=O)(c1cn[nH]c1)N1CCC(Oc2cnccn2)CC1` [Compound 3, 2-((1-((1H-Pyrazol-4-yl)sulfonyl)piperidin-4-yl)oxy)pyrazine] the value was “devoid of any activity”.

The same assay, now with this note: h-NAAA (fluo.), mean ± SD (n ≥ 3); n.a.: not active @50 μM (<10% inhibition).
The term IC50 denotes the concentration that gives 50% inhibition. High values mean a need for much substance, low ones inhibition by little substance. The compound `CCCCCCc1ccc(O[C@H]2C[C@H]3CC[C@@H](C2)N3S(=O)(=O)c2c(C)n[nH]c2C)cc1` [Compound 41, (1R,3r,5S)-8-((3,5-Dimethyl-1H-pyrazol-4-yl)sulfonyl)-3-(4-hexylphenoxy)-8-azabicyclo[3.2.1]octane] registered an IC50 of 19 ± 1 nM.

On to `Cc1n[nH]c(C)c1S(=O)(=O)N1[C@@H]2COC[C@H]1C[C@@H](Oc1cnccn1)C2` [Compound 26, (1R,5S,7s)-9-((3,5-Dimethyl-1H-pyrazol-4-yl)sulfonyl)-7-(pyrazin-2-yloxy)-3-oxa-9-azabicyclo[3.3.1]nonane], for which the 50% inhibitory concentration (IC50) came to 2330 ± 830 nM. `Cc1[nH]nc(C(F)(F)F)c1S(=O)(=O)N1CCC(Oc2cnccn2)CC1` [Compound 14, 2-((1-((5-Methyl-3-(trifluoromethyl)-1H-pyrazol-4-yl)sulfonyl)piperidin-4-yl)oxy)pyrazine] gave an IC50 of 3290 ± 230 nM. Compound `CCCCc1n[nH]c(C)c1S(=O)(=O)N1CCC(Oc2cnccn2)CC1` [Compound 10, 2-((1-((3-Butyl-5-methyl-1H-pyrazol-4-yl)sulfonyl)piperidin-4-yl)oxy)pyrazine] showed a 50% inhibitory concentration (IC50) of 910 ± 130 nM. Same read-out and setting: for `Cc1n[nH]c(C)c1S(=O)(=O)N1C[C@H]2CCC[C@@H](C1)[C@@H]2Oc1cnccn1` [Compound 29, (1R,5S,9s)-3-((3,5-Dimethyl-1H-pyrazol-4-yl)sulfonyl)-9-(pyrazin-2-yloxy)-3-azabicyclo[3.3.1]nonane] the value was 690 ± 60 nM. Same read-out and setting: for `Cc1ccc(O[C@H]2C[C@H]3CC[C@@H](C2)N3S(=O)(=O)c2c(C)n[nH]c2C)cc1` [Compound 33, (1R,3r,5S)-8-((3,5-Dimethyl-1H-pyrazol-4-yl)sulfonyl)-3-(p-tolyloxy)-8-azabicyclo[3.2.1]octane] the value was 36 ± 4 nM. Still for that read-out and setting: for `Cc1cccc(OC2CC3CCC(C2)N3S(=O)(=O)c2c(C)n[nH]c2C)c1` [Compound 35, (1R,3r,5S)-8-((3,5-Dimethyl-1H-pyrazol-4-yl)sulfonyl)-3-(m-tolyloxy)-8-azabicyclo[3.2.1]octane] the value was 614 ± 140 nM; for `Cc1n[nH]c(C)c1S(=O)(=O)N1[C@@H]2CC[C@H]1C[C@@H](Oc1ccccn1)C2` [Compound 30, (1R,3r,5S)-8-((3,5-Dimethyl-1H-pyrazol-4-yl)sulfonyl)-3-(pyridin-2-yloxy)-8-azabicyclo[3.2.1]octane], 160 nM and 162 nM; for `COc1ccc(O[C@H]2C[C@H]3CC[C@@H](C2)N3S(=O)(=O)c2c(C)n[nH]c2C)cc1` [Compound 44, (1R,3r,5S)-8-((3,5-Dimethyl-1H-pyrazol-4-yl)sulfonyl)-3-(4-methoxyphenoxy)-8-azabicyclo[3.2.1]octane], 175 ± 15 nM. `Cc1ccc(O[C@@H]2C[C@H]3CC[C@@H](C2)N3S(=O)(=O)c2c(C)n[nH]c2C)cc1` [Compound 34, (1R,3s,5S)-8-((3,5-Dimethyl-1H-pyrazol-4-yl)sulfonyl)-3-(p-tolyloxy)-8-azabicyclo[3.2.1]octane] registered an IC50 of 8710 ± 340 nM.

(Values after article PMC8474119, “Discovery and SAR Evolution of Pyrazole Azabicyclo[3.2.1]octane Sulfonamides as a Novel Class of Non-Covalent N-Acylethanolamine-Hydrolyzing Acid Amidase (NAAA) Inhibitors for Oral Administration” (Journal of Medicinal Chemistry, 2021).)
